In article PMC9516332 (Frontiers in Oncology, 2022):
Like-named read-outs stand apart in the source and are kept apart here.

Tests used:
Test in all cases: Kinase panel profiling at 1 µmol/L (MSA or IMAP), percentage inhibition
Format in all cases: biochemical
[1] = biological target: T1, panel of 255 wild-type kinases (Homo sapiens, UniProt O60285); settings: read-out: %-inhibition, NuaK1
T1 sequence (O60285 1-661): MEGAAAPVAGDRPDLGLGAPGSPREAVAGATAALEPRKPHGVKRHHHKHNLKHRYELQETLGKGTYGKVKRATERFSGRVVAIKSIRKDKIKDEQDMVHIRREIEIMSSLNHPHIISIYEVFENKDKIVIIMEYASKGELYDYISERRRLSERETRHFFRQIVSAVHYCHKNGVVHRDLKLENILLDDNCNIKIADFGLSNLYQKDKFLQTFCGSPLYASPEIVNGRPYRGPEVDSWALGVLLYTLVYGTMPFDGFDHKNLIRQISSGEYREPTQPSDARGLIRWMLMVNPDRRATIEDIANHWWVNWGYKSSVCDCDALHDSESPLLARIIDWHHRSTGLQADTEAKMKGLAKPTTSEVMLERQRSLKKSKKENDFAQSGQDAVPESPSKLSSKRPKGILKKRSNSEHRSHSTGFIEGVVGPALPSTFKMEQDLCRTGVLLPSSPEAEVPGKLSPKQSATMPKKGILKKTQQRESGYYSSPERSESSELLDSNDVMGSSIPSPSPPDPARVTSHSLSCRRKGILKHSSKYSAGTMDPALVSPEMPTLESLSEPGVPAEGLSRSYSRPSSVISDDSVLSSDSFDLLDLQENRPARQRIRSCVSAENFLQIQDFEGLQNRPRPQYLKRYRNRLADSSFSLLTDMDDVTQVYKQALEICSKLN

[2] = biological target: panel of 255 wild-type kinases (Homo sapiens, UniProt P23458); settings: read-out: %-inhibition at 1 µmol/L, JAK1
[3] = biological target: panel of 255 wild-type kinases (Homo sapiens, UniProt P49761); settings: read-out: %-inhibition at 1 µmol/L, CLK3
[4] = biological target: T2, panel of 255 wild-type kinases (Homo sapiens, UniProt P29320); settings: read-out: %-inhibition at 1 µmol/L, EPHA3
T2 sequence (P29320 21-983): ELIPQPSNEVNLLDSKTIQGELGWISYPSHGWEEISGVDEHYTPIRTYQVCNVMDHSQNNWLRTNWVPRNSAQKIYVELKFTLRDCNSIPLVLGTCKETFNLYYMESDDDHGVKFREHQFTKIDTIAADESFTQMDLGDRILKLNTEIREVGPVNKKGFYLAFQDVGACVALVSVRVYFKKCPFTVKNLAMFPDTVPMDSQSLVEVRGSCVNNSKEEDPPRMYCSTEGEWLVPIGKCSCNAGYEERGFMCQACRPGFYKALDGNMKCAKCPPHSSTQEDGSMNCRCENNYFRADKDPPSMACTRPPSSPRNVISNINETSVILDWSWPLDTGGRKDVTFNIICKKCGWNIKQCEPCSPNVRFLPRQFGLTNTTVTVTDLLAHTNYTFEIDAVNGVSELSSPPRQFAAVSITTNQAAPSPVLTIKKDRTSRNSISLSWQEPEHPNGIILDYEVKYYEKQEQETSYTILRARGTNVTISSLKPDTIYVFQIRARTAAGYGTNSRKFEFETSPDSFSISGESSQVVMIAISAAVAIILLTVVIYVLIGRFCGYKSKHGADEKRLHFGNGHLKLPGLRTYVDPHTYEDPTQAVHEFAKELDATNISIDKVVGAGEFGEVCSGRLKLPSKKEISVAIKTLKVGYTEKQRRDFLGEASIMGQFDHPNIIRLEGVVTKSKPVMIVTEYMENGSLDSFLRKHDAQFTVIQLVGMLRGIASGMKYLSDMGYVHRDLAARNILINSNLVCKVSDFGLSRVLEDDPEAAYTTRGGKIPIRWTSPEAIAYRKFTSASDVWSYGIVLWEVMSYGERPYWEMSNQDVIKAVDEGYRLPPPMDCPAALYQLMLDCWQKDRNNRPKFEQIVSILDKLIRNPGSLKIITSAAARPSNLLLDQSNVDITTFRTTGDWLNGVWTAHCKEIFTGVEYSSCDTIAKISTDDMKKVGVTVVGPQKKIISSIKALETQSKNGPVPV

[5] = biological target: T3, panel of 255 wild-type kinases (Homo sapiens, UniProt P30530); settings: read-out: %-inhibition AXL
T3 sequence (P30530 26-894): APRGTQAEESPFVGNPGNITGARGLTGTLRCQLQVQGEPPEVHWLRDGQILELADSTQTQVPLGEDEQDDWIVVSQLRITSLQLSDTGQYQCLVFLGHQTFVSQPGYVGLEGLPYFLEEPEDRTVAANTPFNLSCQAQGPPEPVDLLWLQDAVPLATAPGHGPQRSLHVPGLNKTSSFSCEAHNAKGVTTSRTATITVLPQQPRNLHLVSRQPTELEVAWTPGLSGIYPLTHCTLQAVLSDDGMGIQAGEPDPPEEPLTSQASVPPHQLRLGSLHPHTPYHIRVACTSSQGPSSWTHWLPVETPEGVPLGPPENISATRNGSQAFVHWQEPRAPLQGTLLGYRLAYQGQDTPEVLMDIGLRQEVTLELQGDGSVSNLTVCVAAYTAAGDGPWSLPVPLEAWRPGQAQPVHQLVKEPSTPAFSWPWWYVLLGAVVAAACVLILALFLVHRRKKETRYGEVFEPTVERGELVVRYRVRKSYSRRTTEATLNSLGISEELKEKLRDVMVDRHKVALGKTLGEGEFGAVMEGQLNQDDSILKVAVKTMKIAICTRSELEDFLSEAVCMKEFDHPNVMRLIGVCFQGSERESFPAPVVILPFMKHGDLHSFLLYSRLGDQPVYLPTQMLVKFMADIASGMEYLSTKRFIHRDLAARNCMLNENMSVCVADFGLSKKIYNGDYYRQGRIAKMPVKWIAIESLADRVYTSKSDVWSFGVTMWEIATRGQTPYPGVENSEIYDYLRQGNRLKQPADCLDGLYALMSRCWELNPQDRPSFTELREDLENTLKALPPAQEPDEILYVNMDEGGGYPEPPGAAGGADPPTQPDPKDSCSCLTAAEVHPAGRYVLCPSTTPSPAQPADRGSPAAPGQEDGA

[6] = biological target: panel of 255 wild-type kinases (Homo sapiens, UniProt O95819); settings: read-out: %-inhibition at 1 µmol/L, HGK
[7] = NuaK1, 1 µmol/L single concentration
[8] = kinase JAK1, 1 µmol/L single concentration
[9] = kinase CLK3, 1 µmol/L single concentration
[10] = kinase EPHA3, 1 µmol/L single concentration
[11] = AXL kinase assay, 1 µmol/L single concentration
[12] = kinase HGK, 1 µmol/L single concentration

Compound | inhibition at 1 µM [1, 7] | inhibition at 1 µM [2, 8] | inhibition at 1 µM [3, 9] | inhibition at 1 µM [4, 10] | inhibition at 1 µM [5, 11] | inhibition at 1 µM [6, 12] | inhibition at 1 µM [1] | inhibition at 1 µM [2] | inhibition at 1 µM [3] | inhibition at 1 µM [4] | inhibition at 1 µM [5] | inhibition at 1 µM [6]
Cc1nc(NC(=O)N2CCC[C@H]2C(N)=O)sc1-c1ccnc(C(C)(C)C(F)(F)F)c1 [alpelisib] | 9% | -8% | 22% | -0.173% | -3.59% | 2.66% | – | – | – | – | – | –
Cn1cc(-c2cc3c(N4CCN(c5ncc([C@@](C)(N)c6ccc(F)cc6)cn5)CC4)ncnn3c2)cn1 [avapritinib] | 85% | 29% | 3.76% | 22% | 37% | 37% | – | – | – | – | – | –
Cn1cnc2c(F)c(Nc3ccc(Br)cc3F)c(C(=O)NOCCO)cc21 [binimetinib] | -4.32% | 5% | 0.514% | 0.248% | -1.7% | 3.18% | – | – | – | – | – | –
CNC(=O)c1ccc(-c2cnc3ncc(Cc4ccc5ncccc5c4)n3n2)cc1F [capmatinib] | – | – | – | – | – | – | -1.53% | 2.61% | 8% | -9% | 34% | 2.68%
COc1cc2ncnc(Nc3ccc(F)c(Cl)c3)c2cc1NC(=O)/C=C/CN1CCCCC1 [dacomitinib] | 11% | 0.444% | 2.5% | 11% | 40% | 39% | – | – | – | – | – | –
C[C@H](Nc1ncnc2nc[nH]c12)c1cc2cccc(Cl)c2c(=O)n1-c1ccccc1 [duvelisib] | 0.44% | 0.053% | 1.78% | 0.475% | -0.298% | 2% | – | – | – | – | – | –
COC(=O)N[C@@H](C)CNc1nccc(-c2cn(C(C)C)nc2-c2cc(Cl)cc(NS(C)(=O)=O)c2F)n1 [encorafenib] | -0.237% | 3.6% | 4.44% | 4% | 0.276% | 7.59% | – | – | – | – | – | –
CN1CCN(c2ccc(C(=O)Nc3n[nH]c4ccc(Cc5cc(F)cc(F)c5)cc34)c(NC3CCOCC3)c2)CC1 [entrectinib] | 102% | 91% | 3.46% | 30% | 96% | 7% | – | – | – | – | – | –
CCc1nc(C(N)=O)c(Nc2ccc(N3CCC(N4CCN(C)CC4)CC3)c(OC)c2)nc1NC1CCOCC1 [gilteritinib] | 98% | 24% | 7% | 30% | 100% | 96% | – | – | – | – | – | –
CCN1CCN(c2ccc(Nc3cc(N(C)C(=O)Nc4c(Cl)c(OC)cc(OC)c4Cl)ncn3)cc2)CC1 [infigratinib] | 8% | 2.57% | 12% | -0.311% | 30% | 15% | – | – | – | – | – | –
O=C(Nc1cnn2ccc(N3CCC[C@@H]3c3cc(F)ccc3F)nc12)N1CC[C@H](O)C1 [larotrectinib] | 13% | 0.894% | -3.43% | 0.702% | 4.22% | 2.53% | – | – | – | – | – | –
C[C@H]1Oc2cc(cnc2N)-c2c(nn(C)c2C#N)CN(C)C(=O)c2ccc(F)cc21 [lorlatinib] | 26% | -0.817% | 0.641% | 4.35% | 8% | 1% | – | – | – | – | – | –
CCN1C(=O)N(c2c(F)c(OC)cc(OC)c2F)Cc2cnc3[nH]c(CN4CCOCC4)cc3c21 [pemigatinib] | -2.15% | -2.65% | -1% | 0.534% | 4.45% | 4.64% | – | – | – | – | – | –
FC(F)(F)c1ccc(CNc2ccc(Cc3c[nH]c4ncc(Cl)cc34)cn2)cn1 [pexidartinib] | 8% | 7% | 18% | 2.11% | 39% | 24% | – | – | – | – | – | –
